Laboratory results from PubChem BioAssay (NCI).
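Each compound was tested at five concentrations against cells in 96-well plates for 48 hours. GI50 = concentration required for 50% inhibition of growth. TGI is the concentration that stops growth completely.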

What was measured:
Experiment in all cases: growth of human tumour cells (NCI), 48 h
786-0 renal = system: 786-0 renal
A498 renal = system: A498 renal
A549 NSCLC = system: A549 NSCLC
ACHN renal = system: ACHN renal
BT-549 breast = system: BT-549 breast
CAKI-1 renal = system: CAKI-1 renal
CCRF-CEM leukemia = system: CCRF-CEM leukemia
COLO 205 colon = system: COLO 205 colon
DU-145 prostate = system: DU-145 prostate
EKVX NSCLC = system: EKVX NSCLC
HCC-2998 colon = system: HCC-2998 colon
HCT-116 colon = system: HCT-116 colon
HCT-15 colon = system: HCT-15 colon
HL-60(TB) leukemia = system: HL-60(TB) leukemia
HOP-62 NSCLC = system: HOP-62 NSCLC
HOP-92 NSCLC = system: HOP-92 NSCLC
HS 578T breast = system: HS 578T breast
HT29 colon = system: HT29 colon
IGROV1 ovarian = system: IGROV1 ovarian
K-562 leukemia = system: K-562 leukemia
KM12 colon = system: KM12 colon
M14 melanoma = system: M14 melanoma
MALME-3M melanoma = system: MALME-3M melanoma
MCF7 breast = system: MCF7 breast
MDA-MB-231 breast = system: MDA-MB-231 breast
MDA-MB-435 = system: MDA-MB-435
MOLT-4 leukemia = system: MOLT-4 leukemia
NCI-H226 lung = system: NCI-H226 lung
NCI-H23 lung = system: NCI-H23 lung
NCI-H460 lung = system: NCI-H460 lung
NCI-H522 lung = system: NCI-H522 lung
NCI/ADR-RES ovarian = system: NCI/ADR-RES ovarian
OVCAR-4 ovarian = system: OVCAR-4 ovarian
OVCAR-5 ovarian = system: OVCAR-5 ovarian
OVCAR-8 ovarian = system: OVCAR-8 ovarian
PC-3 prostate = system: PC-3 prostate
RPMI-8226 leukemia = system: RPMI-8226 leukemia
RXF 393 renal = system: RXF 393 renal
SF-268 CNS = system: SF-268 CNS
SF-295 CNS = system: SF-295 CNS
SF-539 CNS = system: SF-539 CNS
SK-MEL-2 melanoma = system: SK-MEL-2 melanoma
SK-MEL-28 melanoma = system: SK-MEL-28 melanoma
SK-MEL-5 melanoma = system: SK-MEL-5 melanoma
SK-OV-3 ovarian = system: SK-OV-3 ovarian
SN12C renal = system: SN12C renal
SNB-19 CNS = system: SNB-19 CNS
SNB-75 CNS = system: SNB-75 CNS
SR leukemia = system: SR leukemia
SW-620 colon = system: SW-620 colon
T-47D breast = system: T-47D breast
TK-10 renal = system: TK-10 renal
U251 CNS = system: U251 CNS
UACC-257 melanoma = system: UACC-257 melanoma
UACC-62 melanoma = system: UACC-62 melanoma
UO-31 renal = system: UO-31 renal

CN(Cc1ccccc1)S(=O)(=O)/N=C1\NC(=O)NC1=C(Cl)Cl gave a GI50 (786-0 renal) of 2.06 µM, a TGI (786-0 renal) of 4.6 µM and a GI50 (A498 renal) of 2.19 µM. It also gave a TGI (A498 renal) of 6.31 µM, a GI50 (A549 NSCLC) of 3.9 µM and a TGI (A549 NSCLC) of 16.8 µM. It also gave a GI50 (ACHN renal) of 1.77 µM, a TGI (ACHN renal) of 3.19 µM and a GI50 (BT-549 breast) of 1.88 µM. For the same compound, the TGI (BT-549 breast) was 3.47 µM, the GI50 (CAKI-1 renal) was 1.67 µM and the TGI (CAKI-1 renal) was 3.12 µM. For the same compound, the GI50 (CCRF-CEM leukemia) was 1.94 µM, the TGI (CCRF-CEM leukemia) was 5.08 µM and the GI50 (COLO 205 colon) was 1.96 µM. For the same compound, the TGI (COLO 205 colon) was 3.98 µM, the GI50 (DU-145 prostate) was 2.37 µM and the TGI (DU-145 prostate) was 5.34 µM. For the same compound, the GI50 (EKVX NSCLC) was 1.84 µM, the TGI (EKVX NSCLC) was 3.81 µM and the GI50 (HCC-2998 colon) was 1.73 µM. It also gave a TGI (HCC-2998 colon) of 3.3 µM, a GI50 (HCT-116 colon) of 1.94 µM and a TGI (HCT-116 colon) of 3.81 µM. The GI50 (HCT-15 colon) was 1.52 µM, the TGI (HCT-15 colon) was 3.11 µM and the GI50 (HL-60(TB) leukemia) was 2.08 µM. It also gave a TGI (HL-60(TB) leukemia) of 5.35 µM, a GI50 (HOP-62 NSCLC) of 3.01 µM and a TGI (HOP-62 NSCLC) of 11.5 µM. The GI50 (HOP-92 NSCLC) was 1.74 µM, the TGI (HOP-92 NSCLC) was 3.36 µM and the GI50 (HS 578T breast) was 2.82 µM. It also gave a TGI (HS 578T breast) of 8.87 µM, a GI50 (HT29 colon) of 2.07 µM and a TGI (HT29 colon) of 4.72 µM. It also gave a GI50 (IGROV1 ovarian) of 1.88 µM, a TGI (IGROV1 ovarian) of 3.75 µM and a GI50 (K-562 leukemia) of 1.04 µM. It also gave a TGI (K-562 leukemia) of over 100 µM, a GI50 (KM12 colon) of 0.27 µM and a TGI (KM12 colon) of 0.744 µM. For the same compound, the GI50 (M14 melanoma) was 1.76 µM, the TGI (M14 melanoma) was 3.51 µM and the GI50 (MALME-3M melanoma) was 1.79 µM. It also gave a TGI (MALME-3M melanoma) of 3.48 µM, a GI50 (MCF7 breast) of 0.338 µM and a TGI (MCF7 breast) of 13.5 µM. It also gave a GI50 (MDA-MB-231 breast) of 1.79 µM, a TGI (MDA-MB-231 breast) of 3.3 µM and a GI50 (MDA-MB-435) of 1.8 µM. It also gave a TGI (MDA-MB-435) of 3.45 µM, a GI50 (MOLT-4 leukemia) of 2.52 µM and a TGI (MOLT-4 leukemia) of 7.03 µM. For the same compound, the GI50 (NCI-H226 lung) was 2.21 µM, the TGI (NCI-H226 lung) was 5.42 µM and the GI50 (NCI-H23 lung) was 1.79 µM. It also gave a TGI (NCI-H23 lung) of 3.55 µM, a GI50 (NCI-H460 lung) of 2.39 µM and a TGI (NCI-H460 lung) of 5.68 µM. For the same compound, the GI50 (NCI-H522 lung) was 1.99 µM, the TGI (NCI-H522 lung) was 4.31 µM and the GI50 (NCI/ADR-RES ovarian) was 2.1 µM. The TGI (NCI/ADR-RES ovarian) was 4.96 µM, the GI50 (OVCAR-4 ovarian) was 1.84 µM and the TGI (OVCAR-4 ovarian) was 3.64 µM. It also gave a GI50 (OVCAR-5 ovarian) of 1.69 µM, a TGI (OVCAR-5 ovarian) of 3.17 µM and a GI50 (OVCAR-8 ovarian) of 2.37 µM. It also gave a TGI (OVCAR-8 ovarian) of 6.26 µM, a GI50 (PC-3 prostate) of 2.02 µM and a TGI (PC-3 prostate) of 4.39 µM. It also gave a GI50 (RPMI-8226 leukemia) of 0.323 µM, a TGI (RPMI-8226 leukemia) of 1.9 µM and a GI50 (RXF 393 renal) of 1.8 µM. It also gave a TGI (RXF 393 renal) of 3.51 µM, a GI50 (SF-268 CNS) of 2.46 µM and a TGI (SF-268 CNS) of 7.02 µM. The GI50 (SF-295 CNS) was 3.51 µM, the TGI (SF-295 CNS) was 12.2 µM and the GI50 (SF-539 CNS) was 1.74 µM. The TGI (SF-539 CNS) was 3.25 µM, the GI50 (SK-MEL-2 melanoma) was 2.76 µM and the TGI (SK-MEL-2 melanoma) was 7.84 µM. For the same compound, the GI50 (SK-MEL-28 melanoma) was 1.77 µM, the TGI (SK-MEL-28 melanoma) was 3.29 µM and the GI50 (SK-MEL-5 melanoma) was 2.05 µM. The TGI (SK-MEL-5 melanoma) was 4.27 µM, the GI50 (SK-OV-3 ovarian) was 15.7 µM and the TGI (SK-OV-3 ovarian) was 29.2 µM. The GI50 (SN12C renal) was 1.81 µM, the TGI (SN12C renal) was 3.38 µM and the GI50 (SNB-19 CNS) was 2.23 µM. The TGI (SNB-19 CNS) was 5.32 µM, the GI50 (SNB-75 CNS) was 2.04 µM and the TGI (SNB-75 CNS) was 9.32 µM. The GI50 (SR leukemia) was 0.525 µM, the TGI (SR leukemia) was 11.5 µM and the GI50 (SW-620 colon) was 1.8 µM. It also gave a TGI (SW-620 colon) of 3.55 µM, a GI50 (T-47D breast) of 1.59 µM and a TGI (T-47D breast) of 21.8 µM. The GI50 (TK-10 renal) was 2.47 µM, the TGI (TK-10 renal) was 29.9 µM and the GI50 (U251 CNS) was 1.83 µM. The TGI (U251 CNS) was 3.53 µM, the GI50 (UACC-257 melanoma) was 2.22 µM and the TGI (UACC-257 melanoma) was 5.29 µM. For the same compound, the GI50 (UACC-62 melanoma) was 1.73 µM, the TGI (UACC-62 melanoma) was 3.32 µM and the GI50 (UO-31 renal) was 2.45 µM. It also gave a TGI (UO-31 renal) of 10.4 µM.
